Measurements published in article PMC4730192, “Ligand selectivity in tachykinin and natalisin neuropeptidergic systems of the honey bee parasitic mite Varroa destructor” (Scientific Reports, 2016).
No end group written: not given here.

What was measured:
[1] = target: T1, V. destructor TRP receptor (VdTRP-R) (Varroa destructor, UniProt A0A141CIT9); assay: Aequorin calcium-mobilization reporter assay, VdTRP-R transiently expressed in CHO-K1 cells with Ga16; type: cell-based; conditions: for EC50: CHO-K1 cells, Ga16 + aequorin luminescence, 10-fold serial dilutions, logistic fitting of dose-response curves; for Agonistic activity, VdTRP-R 0.1μM: ligand 0.1 μM; for Agonistic activity, VdTRP-R 0.1μM / Agonistic activity, VdTRP-R 1μM: relative luminescence normalized by highest activity of endogenous ligand VdTRP3, 3 biological replications; for Agonistic activity, VdTRP-R 1μM: ligand 1 μM; for Receptor specificity among VdNTL-R, VdTRP-R and AmTRP-R (in words): expanded ligand test at two concentrations on the three receptors
T1 sequence (A0A141CIT9 1-437): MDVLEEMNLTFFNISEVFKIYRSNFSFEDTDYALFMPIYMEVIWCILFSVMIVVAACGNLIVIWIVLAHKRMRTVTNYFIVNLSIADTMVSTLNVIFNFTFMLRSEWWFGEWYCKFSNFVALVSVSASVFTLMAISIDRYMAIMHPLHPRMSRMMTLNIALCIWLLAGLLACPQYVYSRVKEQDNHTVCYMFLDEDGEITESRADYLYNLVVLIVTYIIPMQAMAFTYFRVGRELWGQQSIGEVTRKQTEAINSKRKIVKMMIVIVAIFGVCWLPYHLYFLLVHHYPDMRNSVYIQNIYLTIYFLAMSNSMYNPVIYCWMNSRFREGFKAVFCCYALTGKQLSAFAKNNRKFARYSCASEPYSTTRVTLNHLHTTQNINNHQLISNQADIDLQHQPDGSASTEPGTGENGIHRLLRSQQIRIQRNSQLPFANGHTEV
Excerpt: (§1) In this system, ligand-mediated G-protein-coupled receptor (GPCR) activation initiates calcium mobilization that is indicated by the increased luminescence of aequorin.
(§2) The PCR amplicons of the full open reading frames (ORFs) of the three receptors were initially cloned into the pGEMT easy vector (Promega) and transferred to the expression vector pcDNA3.1(+) (Invitrogen) using the common restriction enzymes in the multi-cloning site (EcoRI for AmTRPR, NotI for both VdNTLR and VdTRPR). The sequences of the inserts were confirmed by Sanger sequencing prior to heterologous expression. High-quality plasmid DNA prepared using the plasmid MIDIprep kit (Qiagen) was used for transient transfection. The methods for transient expression of aequorin and G-alpha16 in Chinese hamster ovary (CHO-K1) cells and the procedures for the assays were previously described. Thirty hours after the transfection, the cells were collected and preincubated with the coelenterazine (Invitrogen) for the functional assay as previously described. Serial dilutions (10-fold, ranging from 0.001 to 1000 nM) of the 10 endogenous ligands were used for treatment of the cells. These ten natural ligands included two […] and three […] predicted from the respective putative precursors and also included five AmTRP peptides. The elevated luminescence caused by intracellular calcium mobilization was measured for a continuous 20 seconds at every 100-ms interval. Dose response curves and EC50s of each ligand for each receptor were obtained by logistic fitting in Origin 8.6 (OriginLab).
(§3) The test ligands were mainly the NTL peptides of T. castaneum, D. melanogaster, B. mori, and Anopheles gambiae and two TRPs, TcTRP4 and DmTRP6. Two doses of each ligand were tested for each receptor: 1 and 0.1 μM for VdNTL-R and VdTRP-R and 1 and 0.01 μM for AmTRP-R.

[2] = target: T2, A. mellifera TRP receptor (AmTRP-R) (Apis mellifera, UniProt A0ACM8RFV8); assay: Aequorin calcium-mobilization reporter assay, AmTRP-R transiently expressed in CHO-K1 cells with Ga16; type: cell-based; conditions: for EC50: CHO-K1 cells, Ga16 + aequorin luminescence, 10-fold serial dilutions, logistic fitting of dose-response curves; for Agonistic activity, AmTRP-R 0.01μM: ligand 0.01 μM; for Agonistic activity, AmTRP-R 0.01μM / Agonistic activity, AmTRP-R 1μM: relative luminescence normalized by highest activity of endogenous ligand AmTRP1, 3 biological replications; for Agonistic activity, AmTRP-R 1μM: ligand 1 μM; for Agonistic activity on AmTRP-R (in words): dose-response or expanded ligand test, 1 and 0.01 μM
T2 sequence (A0ACM8RFV8 1-421): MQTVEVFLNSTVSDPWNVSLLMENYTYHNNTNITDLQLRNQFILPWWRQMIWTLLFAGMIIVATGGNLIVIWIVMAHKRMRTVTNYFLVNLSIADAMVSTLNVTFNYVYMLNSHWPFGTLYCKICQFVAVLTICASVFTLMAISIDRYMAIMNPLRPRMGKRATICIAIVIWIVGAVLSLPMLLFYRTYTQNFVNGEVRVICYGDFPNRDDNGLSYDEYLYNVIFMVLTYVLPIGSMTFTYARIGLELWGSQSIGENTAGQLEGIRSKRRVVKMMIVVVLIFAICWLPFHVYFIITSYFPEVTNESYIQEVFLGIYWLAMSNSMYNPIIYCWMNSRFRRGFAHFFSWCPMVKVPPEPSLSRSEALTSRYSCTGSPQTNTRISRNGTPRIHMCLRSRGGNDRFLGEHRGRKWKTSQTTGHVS
Excerpt: as §1, §2, §3

[3] = target: T3, V. destructor NTL receptor (VdNTL-R) (Varroa destructor, UniProt A0A141CIT8); assay: Aequorin calcium-mobilization reporter assay, VdNTL-R transiently expressed in CHO-K1 cells with Ga16; type: cell-based; conditions: for Agonistic activity, VdNTL-R 1μM: ligand 1 μM; for Agonistic activity, VdNTL-R 1μM / Agonistic activity, VdNTL-R 0.1μM: relative luminescence normalized by highest activity of endogenous ligand VdNTL1, 3 biological replications; for Agonistic activity, VdNTL-R 0.1μM: ligand 0.1 μM; for EC50: CHO-K1 cells, Ga16 + aequorin luminescence, 10-fold serial dilutions, logistic fitting of dose-response curves
T3 sequence (A0A141CIT8 1-461): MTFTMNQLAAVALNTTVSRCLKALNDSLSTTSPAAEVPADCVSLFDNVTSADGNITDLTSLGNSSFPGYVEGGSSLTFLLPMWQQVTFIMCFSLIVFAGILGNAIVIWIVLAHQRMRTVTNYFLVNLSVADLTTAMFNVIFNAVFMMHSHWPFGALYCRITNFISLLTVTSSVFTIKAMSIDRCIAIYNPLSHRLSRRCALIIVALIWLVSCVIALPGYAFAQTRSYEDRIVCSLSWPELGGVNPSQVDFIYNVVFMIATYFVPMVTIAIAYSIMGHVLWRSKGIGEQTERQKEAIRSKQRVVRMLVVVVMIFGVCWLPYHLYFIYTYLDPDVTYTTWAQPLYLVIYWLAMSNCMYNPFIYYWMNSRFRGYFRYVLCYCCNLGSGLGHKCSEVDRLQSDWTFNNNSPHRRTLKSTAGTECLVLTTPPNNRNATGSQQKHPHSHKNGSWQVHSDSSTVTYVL
Excerpt: as §1, §2, §3

[4] = system: cockroach TRP myotropic bioassay; conditions: cited from earlier work
[5] = system: pea aphid Acyrthosiphon pisum; conditions: by feeding; cited from earlier work
[6] = expanded ligand test, 1 and 0.1 μM

Row | Substance | EC50 [1] [nM] | EC50 [2] [nM] | Agonistic activity, VdNTL-R 1μM [3] [RLU] | Agonistic activity, VdTRP-R 0.1μM [1] [RLU] | Agonistic activity, VdTRP-R 1μM [1] [RLU] | Agonistic activity, AmTRP-R 0.01μM [2] [RLU] | Agonistic activity, AmTRP-R 1μM [2] [RLU] | Agonistic activity, VdNTL-R 0.1μM [3] [RLU] | also measured
1 | AAPFHAMR-NH2 [VdTRP2] | 71 | 95 |  |  |  |  |  |  | 
2 | AFHAMR-NH2 [VdTRP1] | 55 | 95 |  |  |  |  |  |  | 
3 | ALMGFQGVR-NH2 [AmTRP1] |  | 0.3 | 37.1 | 2.5 | 34.9 | 69 | 100 |  | 
4 | APMGFQGMR-NH2 [AmTRP2,3] | 250 |  |  |  |  |  |  |  | 
5 | ASGQEEFGPFWANRa [TcNTL1, NTL peptide of T. castaneum] |  |  | 1.5 | 2.2 | 60.7 | 4.6 | -0.2 | 1 | Receptor specificity among VdNTL-R, VdTRP-R and AmTRP-R (in words) [1]: specifically activated only VdTRP-R
6 | DLRQENDPFWGNR-NH2 [BmNTL3, NTL peptide of B. mori] |  |  | 0.1 | 30.7 | 83.4 | 4.7 | -0.8 | 0.4 | Receptor specificity among VdNTL-R, VdTRP-R and AmTRP-R (in words) [1]: specifically activated only VdTRP-R
7 | GGVPGFVGAR-NH2 [VdNTL2] |  | 0.7 |  |  |  |  |  |  | EC50 [3]: 37 nM; Agonistic activity on AmTRP-R (in words) [2]: equally potent as the AmTRPs
8 | GSFFGMR-NH2 [VdTRP3, GSFFGMRa] | 4.3 | 13 | 24.8 | 107.6 | 100 | 58 | 96.3 |  | 
9 | HRNLFQVDDPFFATRa [DmNTL4, NTL peptide of D. melanogaster] |  |  | 30.4 | 10.3 | 70.9 | 9.5 | 79.7 | 0.8 | 
10 | LQLRDLYNADDPFVPNRa [DmNTL5, NTL peptide of D. melanogaster] |  |  | 0.1 | 0.7 | 3.1 | 6.5 | -1.2 | 0.2 | 
11 | NPRWEFRGKFVGVR-NH2 [AmTRP7] | 93 | 0.8 |  |  |  |  |  |  | Lower sensitivity of VdTRP-R relative to VdTRP3 ([1]; fold lower sensitivity versus VdTRP3): > 10 ×
12 | SIGGPAPGFVGAR-NH2 [VdNTL1] |  | 4.5 | 100 | 1.3 | 18.6 | 60.2 | 98.4 | 96.2 | EC50 [3]: 26 nM; Difference in activity on AmTRP-R between VdNTL1 and VdNTL2 ([2]; VdNTL1 compared with VdNTL2): approximately 6 ×
13 | TEENPFWANR-NH2 [BmNTL5, NTL peptide of B. mori] |  |  | 0.4 | 7.3 | 61.2 | 6 | -0.2 | 0.3 | Receptor specificity among VdNTL-R, VdTRP-R and AmTRP-R (in words) [1]: specifically activated only VdTRP-R
14 | pQA[Aib]SGFL[Aib]VRamide [compound 1888] |  |  | 1.9 | 0.3 | 1 | -0.4 | 62.9 | -0.4 | Agonistic activity on VdNTL-R (in words) [3, 6]: failing to show agonistic activity; Agonistic activity on VdTRP-R (in words) [1, 6]: failing to show agonistic activity; Agonistic activity on AmTRP-R (in words) [2]: some activity; Activity in a cockroach TRP myotropic bioassay [4]: highly potent activity; Oral aphicidal activity [5]: potent oral aphicidal activity
